# Measurements: ChEMBL document CHEMBL5131397, “Discovery and Optimization of Pyrazole Amides as Inhibitors of ELOVL1” (J Med Chem, 2021)
# pIC50: −log10 of the molar value.
# Assays:
# [1] = target: T1, Very long chain fatty acid elongase 1 (Homo sapiens, UniProt Q9BW60); assay: Inhibition of ELOVL1 (unknown origin) using C22-acyl-CoA as substrate by radiometric enzyme assay
# T1 sequence (Q9BW60 whole entry): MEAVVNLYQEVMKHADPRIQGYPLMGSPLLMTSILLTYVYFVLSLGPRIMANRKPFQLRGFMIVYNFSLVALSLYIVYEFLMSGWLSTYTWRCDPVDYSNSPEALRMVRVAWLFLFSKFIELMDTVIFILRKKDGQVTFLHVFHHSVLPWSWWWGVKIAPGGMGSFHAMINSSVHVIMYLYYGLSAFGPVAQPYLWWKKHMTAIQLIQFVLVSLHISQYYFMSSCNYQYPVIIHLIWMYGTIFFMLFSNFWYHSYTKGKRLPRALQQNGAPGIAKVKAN
# [2] = target: T1, Very long chain fatty acid elongase 1; assay: Inhibition of ELOVL1 in human HEK2936E cells assessed as reduction of C26:0 LPC synthesis incubated for 48 hrs by cellular assay; assay type: cell-based
# [3] = Intrinsic clearance in human hepatocytes assessed per million cells; assay type: ADME, cell-based, Hepatocyte; conditions: read-out: CLH
# [4] = Intrinsic clearance in rat hepatocytes assessed per million cells; assay type: ADME, cell-based, Hepatocyte; conditions: read-out: CLH
# [5] = target: T2, Very long chain fatty acid elongase 6 (Homo sapiens, UniProt Q9H5J4); assay: Inhibition of ELOVL6 (unknown origin) using C16-acyl-CoA as substrate by radiometric enzyme assay
# T2 sequence (Q9H5J4 whole entry): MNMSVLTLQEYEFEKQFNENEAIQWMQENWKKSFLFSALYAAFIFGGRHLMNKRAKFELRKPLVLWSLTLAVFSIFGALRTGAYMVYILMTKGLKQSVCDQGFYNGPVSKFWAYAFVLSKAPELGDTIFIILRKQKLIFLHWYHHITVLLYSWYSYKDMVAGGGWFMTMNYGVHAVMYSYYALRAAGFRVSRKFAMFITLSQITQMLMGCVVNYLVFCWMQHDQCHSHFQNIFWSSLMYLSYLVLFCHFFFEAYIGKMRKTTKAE
# [6] = target: T3, Very long chain fatty acid elongase 7 (Homo sapiens, UniProt A1L3X0); assay: Inhibition of ELOVL7 (unknown origin) using C18-acyl-CoA as substrate by radiometric enzyme assay
# T3 sequence (A1L3X0 whole entry): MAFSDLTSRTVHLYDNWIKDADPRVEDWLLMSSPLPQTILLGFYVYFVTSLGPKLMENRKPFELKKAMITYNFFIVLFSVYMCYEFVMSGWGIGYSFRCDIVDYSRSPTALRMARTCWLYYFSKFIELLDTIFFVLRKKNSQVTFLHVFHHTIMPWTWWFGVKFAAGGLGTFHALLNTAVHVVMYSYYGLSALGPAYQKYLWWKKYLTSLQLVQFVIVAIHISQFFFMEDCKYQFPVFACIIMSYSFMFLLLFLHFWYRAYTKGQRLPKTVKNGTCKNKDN
# [7] = Reduction in C26:0 LPC level in ABCD1 (-/y) knock out mouse brain at 0.4 to 2 mg/kg, ip administered daily measured after 4.5 months by LC-MS/MS analysis; assay type: functional; design: scale not given: the % may be the effect or the level left; conditions: dose 0.4-2 mg/kg, 3285 h
SMILES,pIC50 [1],pIC50 [2],hepatocyte CLint [3] [µL/min/1e6 cells],hepatocyte CLint [4] [µL/min/1e6 cells],pIC50 [5],pIC50 [6],Activity [7] [%]
O=C(Nc1ccn(-c2cncc(F)c2)n1)C1(c2cc(F)ccc2F)CC1,6.26,6.77,6,25,–,–,–
O=C(Nc1nc(-c2ccccc2)cs1)C1CCCO1 (stereo not drawn),4.52,–,–,–,< 4.00,< 4.00,–
COc1cc(-n2ccc(NC(=O)C3(c4ccccc4F)CC3)n2)ccn1,5.92,7.30,11,130,–,–,–
O=C(Nc1ccn(-c2cncc(F)c2)n1)C1(c2ccccc2F)CC1,5.92,7.74,10,68,–,–,–
N#Cc1cccc(C2(C(=O)Nc3ccn(-c4cncc(F)c4)n3)CC2)c1,5.64,6.51,4,60,–,–,–
Cc1ccccc1C1(C(=O)Nc2ccn(-c3cncc(F)c3)n2)CC1,5.12,6.40,40,400,–,–,–
O=C(Nc1ccn(-c2ccnc(C(F)(F)F)c2)n1)C1(c2ccccc2F)CC1,< 4.30,< 5.30,8,51,–,–,–
O=C(Nc1ccn(-c2ccncn2)n1)C1(c2ccccc2F)CC1,6.05,7.52,14,59,–,–,–
O=C(Nc1ccn(-c2ccncc2)n1)C1(c2ccccc2F)CC1,5.82,7.10,–,80,–,–,–
Nc1cc(-n2ccc(NC(=O)C3(c4ccccc4F)CC3)n2)ccn1,< 4.70,5.72,9,54,–,–,–
CC1(C)CC1(C(=O)Nc1ccn(-c2ccccc2)n1)c1ccccc1 (stereo not drawn),5.36,6.05,50,239,–,–,–
O=C(Nc1nc(-c2ccncc2)cs1)C1(c2ccccc2)CC1,5.74,–,–,–,< 4.00,< 4.00,–
O=C(Nc1ccn(-c2ccccc2)n1)C1(c2ccccc2)CC1(F)F (stereo not drawn),6.01,6.85,194,278,–,–,–
Cc1cc(OCC(=O)O)cc(C)c1Cc1ccc(O)c(C(C)C)c1 [SOBETIROME],–,–,–,–,–,–,21
COc1ccc(C2(C(=O)Nc3ccn(-c4cncc(F)c4)n3)CC2)cc1,5.43,6.19,11,103,–,–,–
Cc1cc(-n2ccc(NC(=O)C3(c4ccccc4F)CC3)n2)ccn1,4.68,5.80,7,78,–,–,–

SMILES,pIC50 [1],pIC50 [2],hepatocyte CLint [3] [µL/min/1e6 cells],hepatocyte CLint [4] [µL/min/1e6 cells],pIC50 [5],pIC50 [6],Activity [7] [%]
O=C(Nc1ccn(-c2cncc(F)c2)n1)C1(c2ccc(Cl)cc2)CC1,5.62,6.47,5,133,–,–,–
COc1cccc(C2(C(=O)Nc3ccn(-c4cncc(F)c4)n3)CC2)c1,5.82,6.77,19,355,–,–,–
O=C(Nc1ccn(-c2cncc(F)c2)n1)C1(c2ccccc2Cl)CC1,5.35,6.96,8,61,–,–,–
O=C(Nc1ccn(-c2cncc(F)c2)n1)C1(c2ccccc2)CC1,6.25,7.66,7,50,–,–,–
O=C(Nc1ccn(-c2ncns2)n1)C1(c2ccccc2F)CC1,6.40,7.74,14,25,–,–,–
N#Cc1ccccc1C1(C(=O)Nc2ccn(-c3cncc(F)c3)n2)CC1,4.64,5.60,5,13,–,–,–
O=C(Nc1ccn(-c2cncc(F)c2)n1)C1(c2cccc(F)c2)CC1,5.80,6.72,8,97,–,–,–
COc1ccccc1C1(C(=O)Nc2ccn(-c3cncc(F)c3)n2)CC1,< 4.30,< 5.30,–,–,–,–,–
O=C(Nc1ccn(-c2cncc(F)c2)n1)C1(c2c(F)cccc2F)CC1,5.92,7.77,4,13,–,–,–
O=C(Nc1ccn(-c2cncc(F)c2)n1)C1(c2cccc(F)c2F)CC1,5.89,6.85,6,54,–,–,–
O=C(Nc1ccn(-c2ccccc2)n1)C1(c2ccccc2)COC1,5.09,6.59,31,32,–,–,–
O=C(Cc1ccccc1F)Nc1nc(-c2ccnc(F)c2)cs1,5.36,–,–,–,< 4.00,< 4.00,–
O=C(Cc1ccccc1)Nc1nc(-c2ccccc2)cs1,5.40,6.30,127,398,–,–,–
O=C(Nc1ccn(-c2cncc(F)c2)n1)C1(c2ccc(F)cc2)CC1,6.08,7.00,4,88,–,–,–
O=C(Nc1ccn(-c2ccc(F)nc2)n1)C1(c2ccccc2F)CC1,6.10,7.64,6,23,–,–,–
N#Cc1ccc(C2(C(=O)Nc3ccn(-c4cncc(F)c4)n3)CC2)cc1,5.66,6.96,5,8,–,–,–

# Further lines, with some results ahead:
pIC50 [1],pIC50 [2],hepatocyte CLint [3] [µL/min/1e6 cells],hepatocyte CLint [4] [µL/min/1e6 cells],pIC50 [5],pIC50 [6],SMILES,Activity [7] [%]
< 4.30,< 5.30,–,–,–,–,O=C(Cc1ccccc1F)Nc1ncn(-c2ccccc2)n1,–
< 4.30,< 5.30,–,–,–,–,CCOC(C(=O)Nc1ccn(-c2ccccc2)n1)c1ccccc1 (stereo not drawn),–
6.30,7.92,30,237,–,–,O=C(Nc1ccn(-c2ccccc2)n1)C1(c2ccccc2F)CC1,–
5.80,6.68,56,313,–,–,C[C@@H](C(=O)Nc1ccn(-c2ccccc2)n1)c1ccccc1,–
< 5.10,6.05,101,518,–,–,O=C(Cc1ccccc1F)Nc1cnn(-c2ccccc2)n1,–
< 4.30,< 5.30,–,–,–,–,O=C(Cc1ccccc1F)Nc1cnn(-c2ccccc2)c1,–
< 4.30,–,–,–,–,–,O=C(Cc1ccccc1F)Nc1ccnc(-c2ccccc2)n1,–
< 4.30,< 5.30,–,–,–,–,O=C(Cc1ccccc1F)Nc1nccc(-c2ccccc2)n1,–
5.02,6.19,88,123,–,–,CC[C@@H](C(=O)Nc1ccn(-c2ccccc2)n1)c1ccccc1,–
6.30,7.70,38,111,–,–,O=C(Nc1ccn(-c2ccccc2)n1)C1(c2ccccc2)CC1,–
5.80,7.22,55,182,–,–,O=C(Cc1ccccc1F)Nc1ccn(-c2ccccc2)n1,–
5.57,6.52,18,262,–,–,CC(C)(C(=O)Nc1ccn(-c2ccccc2)n1)c1ccccc1,–
< 4.30,5.77,–,–,–,–,CN(C)C(C(=O)Nc1ccn(-c2ccccc2)n1)c1ccccc1 (stereo not drawn),–
< 4.30,< 5.30,–,–,–,–,O=C(Cc1ccccc1F)Nc1cccc(-c2ccccc2)n1,–
5.70,7.42,37,308,–,–,C[C@H](C(=O)Nc1ccn(-c2ccccc2)n1)c1ccccc1,–
5.49,6.55,102,281,–,–,O=C(Cc1ccccc1F)Nc1nc(-c2ccccc2)cs1,–
5.57,7.15,90,519,–,–,O=C(Cc1ccccc1)Nc1ccn(-c2ccccc2)n1,–
< 4.30,–,–,–,–,–,O=C(Cc1ccccc1F)Nc1ncc(-c2ccccc2)o1,–
